Here are results for one molecule from US20240382509A1, “Cannabinoids C- and O-glycosides possessing anti-proliferative and anti-metastatic properties and process for preparation thereof” (Council of Scientific and Industrial Research, priority 2021, published 2024).

By IC50 is commonly meant the midpoint of a concentration-inhibition curve.

The test system of data set [1] is Panc-1 cells. As to the kind of experiment: MTT cell viability assay, Panc-1. It counts as cell-based. As to conditions: Homo sapiens, PANC-1, 48 h, read-out: Cytotoxicity (IC50) Panc-1, MTT, 48 h; pancreatic cancer cells. On the procedure:
(§1) Cell viability assay: The cell viability was determined by the standard MTT assay method. Briefly, Panc-1, HCT-116, A549, PC3, MIAPaca-2, HT-29, MDA-MB-231, MCF7 cells, and fR2cells were seeded in 96 well tissue culture plates (Nunc) at a density of 4×10^3 cells per well and treated with varying concentrations of the test compounds in triplicates. DMSO was taken as a vehicle, and its final concentration was maintained at 0.2% in the culture medium. Doxorubicin was employed as a positive control. After 44 h of incubation, MTT dye solution was added into the medium, and cells were incubated for another 4 h at 37° C. in 5% CO2. The amount of colored formazan derivatives formed was measured by taking optical density (OD) using a microplate reader (TECAN, Infinite M200 Pro) at 570 nm, and the percentage of cell viability was calculated. The IC50 values were calculated using GraphPad Prism software (Version 5.0).

Data set [2] has as its system HCT-116 cells. The experiment in a line: MTT cell viability assay, HCT-116. The data set is classed as cell-based. The settings on record: Homo sapiens, HCT-116, 48 h, read-out: Cytotoxicity (IC50) HCT-116, MTT, 48 h; colorectal adenocarcinoma cells. On the procedure: as §1
(Formazan colour is commonly taken as a measure of viable cells.)

Data set [3] has as its system HCT-116 cells. The experiment in a line: Chromosome isolation and staining (chromosomal stability). The data set is classed as cell-based. The settings on record: HCT-116, 2a in combination with 5FU, compared to vehicle/750 nM 5FU/3 μM 2a. An excerpt:
The effect of the compound 2a in combination with DNA damaging drug 5-Fluorouracil in colon adenocarcinoma cells was studied. […] Consequently, the major repair factor RAD-51 got diminished as compared to 5FU alone treated lane. The immunoblot results also depicted the downmodulation of cellular survival factor BCL-2 and subsequent upregulation of proapoptotic protein Bax (FIG. 8a). […] Moreover, the effect of the combinatorial treatment on chromosomal stability in HCT-116 cells by chromosome isolation and staining was studied.

The subject of data set [4] is MIAPaCa-2 cells. As to the kind of experiment: Phase contrast microscopy of cell morphology. The settings on record: MIAPaCa-2, 0.5 μM to 5 μM. The data set is classed as cell-based, human.
In data set [5] the test system is MDA-MB-231 cells. The experiment in a line: In-situ gelatin degradation assay, MDA-MB-231. The settings on record: MDA-MB-231, 1.5 μM to 5 μM. The data set is classed as cell-based, human. Here is the method: Matrix gelatin degradation assay. In-situ gelatin degradation assay is performed to detect the formation of migratory structures (invadopodia & filopodia). Briefly, glass coverslips were coated with gelatin tagged with FITC, and the coated coverslips were dipped into 70% ethanol and immersed into a 6 well plate filled with RPMI and the coverslips were kept in a CO2 incubator for 1-2 h for preconditioning. Later on, both MIAPaCa-2 and MDA-MB-231 cells were seeded onto the coverslips and kept overnight for attachment. Treatment of the compound 2a (0.5, 1.5, 3 & 5 μM) was given on the next day and continued for 36 h. Upon termination, the coverslips were washed with ice-cold PBS, and then it was fixed in 4% paraformaldehyde for 15 min and then washed with PBS. Finally, the coverslips were mounted using mounting media consist of glycerol, and the edges were sealed with nail polish. After drying, the slides were observed under a fluorescence microscope to assess a degraded area's presence. The fluorescent images were captured, and the images were further processed in Image J software (Version 1.50i) to quantify the degraded area in each field.
(§2) Now to study its anti-migratory and anti-metastatic role in another highly metastatic cancer cells of breast origin (MDA-MB 231) the IC50 value was determined by performing MTT assay (FIG. 6a).

Data set [6] has as its system HCT-116 cells. As to the kind of experiment: Annexin V/PI staining for apoptosis (FACS). The data set is classed as cell-based. The settings on record: HCT-116, 750 nM 5FU+3 μM 2a. On the procedure:
1×10^6 HCT-116 cells were seeded in 60 mm Petri dish and treated with vehicle, 3 μM 2a, 750 nM 5FU and 750 nM 5FU+3 μM 2a for indicated time points. After treatment termination, the cells were carefully trypsinized and the palette obtained were resuspended in 600 μL of binding buffer (10 mM HEPES [N-2-hydroxyethylpiperazine-N-2-ethanesulfonicacid], 140 mM NaCl, and 2.5 mM CaCl2, pH 7.4). Subsequently, the cells were stained with 6 μL of AnnexinV-FITC and 10 μL of propidium iodide for 20 min at room temperature in the dark. The samples were immediately analyzed by FACS (BD Accuri C6), and the scatter plot was obtained by BD Accuri C6 software.
The DNA damaging effect of compound 2a in combination with subtoxic doses of 5FU was further analyzed by Annexin/PI staining to check the activation of programmed cell death. […] Cumulatively, compound 2a elevated the DNA damaging effect and eventually leads to programmed cell death in combination with subtoxic doses of 5FU (FIG. 9b).

The test system of data set [7] is MDA-MB-231 cells. As to the kind of experiment: Matrigel invasion assay, MDA-MB-231. The data set is classed as cell-based, human. As to conditions: MDA-MB231, 0.5 μM to 5 μM. Here is the method:
Matrigel invasion assay: MIAPaCa-2 and MDA-MB-231 cells (1×10^6) were seeded onto matrigel coated inserts and treated with compound 2a (0.5, 1.5, 3 & 5 μM) for 36 h in 5% CO2 incubator at 37° C. The upper chamber is filled with serum-free media, and the lower half consists of 10% FBS supplemented media, thus creating a gradient of chemoattractant that facilitates the migration of cells. Upon termination, the inserts were washed with PBS, and the non-migratory cells were removed from the upper chamber by using a cotton plug. Further, the cells were fixed with methanol and stained later with 0.2% crystal violet. After drying, the inserts were observed under an inverted microscope at 20× magnification, and images were taken.
as §2

The subject of data set [8] is γH2AX in HCT-116 cells. As to the kind of experiment: γH2AX immunofluorescence after combinatorial treatment of 5FU and compound 2a. The data set is classed as cell-based. As to conditions: HCT-116, 750 nM 5FU+3 μM 2a. Here is the method:
Assessment of DNA damage by combinatorial treatment of 5FU and Compound 2a. An immunofluorescence study was performed to assess the expression of γH2AX, which tends to form a complex with damaged DNA resulting in the formation of a beads-like structure when tagged with a fluorescent labelled antibody. Briefly, HCT-116 cells were seeded in 8 well chamber slide and treated with vehicle, 750 nM 5FU+3 μM 2a for 36, 48, and 60 h and 750 nM 5FU for 60 h. Following termination of drug treatment, the cells were washed with ice-cold PBS and fixed with 4% paraformaldehyde for 10 min. Subsequently, permeabilization was done by incubating the cells with 0.1% Triton X-100. Before incubating with primary antibody (anti-γH2AX mouse monoclonal antibody), the cells were blocked with 5% BSA for 1-2 h; consequently, the cells were incubated with primary antibody (1:200) for overnight at 4° C. Subsequently, the cells were washed with ice-cold PBS for five times and further incubated with secondary anti-mouse antibody (1:500) for 30 min. The slides, after thorough washing with PBS, were mounted in DAPI containing mounting media. The images were captured in Floid imaging station at 20× optical magnification, and digital zooming was done up to […].
The effect of the compound 2a in combination with DNA damaging drug 5-Fluorouracil in colon adenocarcinoma cells was studied. […]

A short description of data set [9]: MTT cell viability assay, fR2 normal epithelial cells. The data set is classed as cell-based, human. The settings on record: human, fR2 normal epithelial cells; MTT, 48 h; normal epithelial cell line; read-out: Cytotoxicity (IC50) fR2. Here is the method: as §1

`CCCCCc1cc(O[C@@H]2OC(CO)[C@@H](O)C(O)C2O)c2c(c1)OC(C)(C)[C@@H]1CCC(C)=C[C@@H]21` (stereo partly drawn) [Compound 2a, Δ^9-tetrahydrocannabinol-1-O-β-D-glucopyranoside]: the half-inhibitory concentration (IC50) was 3 µM in data set [1] and 2.1 µM in [2]. Also, the chromosomal aberrations entry in data set [3] is given as “significantly increases chromosomal abbreations”. The “mesenchymal (fibroblastic) morphology” value in [4] is “gradual loss of mesenchymal (fibroblastic) morphology”. In addition, in [5], the gelatin degradation result is reported as “significant decrease of gelatin degradation”. In data set [6], the “apoptosis (Annexin+/PI+)” value is reported as “induction of late phase of apoptosis”. The “migration in Matrigel coated invasion chamber” value in data set [7] is given as “periodical loss of migration”. The “expression of γH2AX (immunocytochemistry)” value in data set [8] was “increased expression”. The half-maximal inhibitory concentration (IC50) at 48 h in [9] was above 100 µM.
